Assay results as given in patent US20200181104A1, “SSAO INHIBITORS AND USES THEREOF” (METACRINE, INC., priority 2018, published 2020).
Where a name gives a salt, the structure may show the parent alone.

Target: T1, Recombinant Human SSAO/VAP-1/AOC3 (Homo sapiens, UniProt Q16853)
T1 construct: purchased R&D systems 3957-AO
T1 sequence (Q16853 1-763): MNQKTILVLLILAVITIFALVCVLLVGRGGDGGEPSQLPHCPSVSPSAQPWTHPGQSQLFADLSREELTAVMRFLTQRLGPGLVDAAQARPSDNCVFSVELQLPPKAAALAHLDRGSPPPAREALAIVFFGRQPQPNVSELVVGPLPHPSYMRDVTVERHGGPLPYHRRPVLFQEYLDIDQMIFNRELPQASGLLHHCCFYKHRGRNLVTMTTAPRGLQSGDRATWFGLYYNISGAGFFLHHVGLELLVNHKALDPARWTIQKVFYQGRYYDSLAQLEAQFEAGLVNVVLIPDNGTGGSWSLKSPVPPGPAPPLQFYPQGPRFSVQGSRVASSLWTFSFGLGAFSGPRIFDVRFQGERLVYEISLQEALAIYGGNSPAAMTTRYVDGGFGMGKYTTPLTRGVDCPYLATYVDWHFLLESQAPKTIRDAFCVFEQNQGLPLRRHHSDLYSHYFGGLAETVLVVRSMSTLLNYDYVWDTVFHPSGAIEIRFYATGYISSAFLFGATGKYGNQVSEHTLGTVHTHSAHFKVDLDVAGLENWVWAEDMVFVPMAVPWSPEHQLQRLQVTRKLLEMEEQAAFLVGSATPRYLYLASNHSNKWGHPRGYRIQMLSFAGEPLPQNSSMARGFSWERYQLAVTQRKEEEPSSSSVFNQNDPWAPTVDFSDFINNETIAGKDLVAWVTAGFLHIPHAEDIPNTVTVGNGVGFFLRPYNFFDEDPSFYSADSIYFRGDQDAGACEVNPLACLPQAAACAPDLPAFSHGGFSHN
Test: Human Semicarbazide-Sensitive Amine Oxidase (SSAO) Assay
Type: biochemical
Conditions: recombinant enzyme, 30 minutes preincubation at 37° C., benzylamine substrate, Amplex Ultra Red/HRP fluorescence
Method in brief: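 Recombinant human SSAO/VAP-1 (2.5 μg/ml working stock in 50 mM HEPES) preincubated with compound 30 min at 37 °C over a 6-10 point CRC. Benzylamine substrate starts the reaction. H2O2 read kinetically over 30-120 min via Amplex Ultra Red/HRP fluorescence (ex 544/em 590 nm) to derive IC50.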

Row | Compound | IC50 [µM]
1 | NC/C(=C\F)COc1ccc(C23CCC(C(=O)NC4(CO)CCOCC4)(CC2)CC3)cc1 [Compound 2.72, (E)-4-(4-((2-(aminomethyl)-3-fluoroallyl)oxy)phenyl)-N-(4-(hydroxymethyl)tetrahydro-2H-pyran-4-yl)bicyclo[2.2.2]octane-1-carboxamide] | ≤ 0.01
2 | N#CC1CCCC1NC(=O)C12CCC(c3ccc(OC/C(=C/F)CN)cc3)(CC1)CC2 (stereo not drawn) [Compound 2.156, (E)-4-(4-((2-(aminomethyl)-3-fluoroallyl)oxy)phenyl)-N-(2-cyanocyclopentyl)bicyclo[2.2.2] octane-1-carboxamide] | ≤ 0.01
3 | NC/C(=C\F)COc1ccc(C23CCC(C(=O)N4CC(CO)C4)(CC2)CC3)cc1 [Compound 2.43, (E)-(4-(4-((2-(aminomethyl)-3-fluoroallyl)oxy)phenyl)bicyclo [2.2.2]octan-1-yl)(3-(hydroxymethyl)azetidin-1-yl)methanone] | ≤ 0.01
4 | CNC(=O)C12CCC(c3ccc(OC/C(=C/F)CN)cc3)(CC1)CC2 [Compound 2.03, (E)-4-(4-((2-(aminomethyl)-3-fluoroallyl)oxy)phenyl)-N-methylbicyclo[2.2.2]octane-1-carboxamide Hydrochloride] | ≤ 0.01
5 | COc1ccc(CNC(=O)C23CCC(c4ccc(OC/C(=C/F)CN)cc4)(CC2)CC3)cc1 [Compound 2.118, (E)-4-(4-((2-(aminomethyl)-3-fluoroallyl)oxy)phenyl)-N-(4-methoxybenzyl)bicyclo[2.2.2] octane-1-carboxamide] | ≤ 0.01
6 | NC/C(=C\F)COc1ccc(C23CCC(C(=O)NC4(c5ccccc5)CCOCC4)(CC2)CC3)cc1 [Compound 2.69, (E)-4-(4-((2-(aminomethyl)-3-fluoroallyl)oxy)phenyl)-N-(4-phenyltetrahydro-2H-pyran-4-yl)bicyclo[2.2.2]octane-1-carboxamide] | ≤ 0.01
7 | NC/C(=C\F)COc1ccc(C23CCC(C(=O)Nc4ncco4)(CC2)CC3)cc1 [Compound 2.76, (E)-4-(4-((2-(aminomethyl)-3-fluoroallyl)oxy)phenyl)-N-(oxazol-2-yl)bicyclo[2.2.2]octane-1-carboxamide] | ≤ 0.01
8 | COC1(CCNC(=O)C23CCC(c4ccc(OC/C(=C/F)CN)cc4)(CC2)CC3)CCC1 [Compound 2.147, (E)-4-(4-((2-(aminomethyl)-3-fluoroallyl)oxy)phenyl)-N-(2-(1-methoxycyclobutyl)ethyl) bicyclo[2.2.2]octane-1-carboxamide] | ≤ 0.01
9 | NC/C(=C\F)COc1ccc(C23CCC(C(=O)NC4(C5CCOCC5)CC4)(CC2)CC3)cc1 [Compound 2.41, (E)-4-(4-((2-(aminomethyl)-3-fluoroallyl)oxy)phenyl)-N-(1-(tetrahydro-2H-pyran-4-yl)cyclopropyl)bicyclo[2.2.2] octane-1-carboxamide] | ≤ 0.01
10 | CC(C)(O)CNC(=O)C12CCC(c3ccc(OC/C(=C/F)CN)cc3)(CC1)CC2 [Compound 2.48, (E)-4-(4-((2-(aminomethyl)-3-fluoroallyl)oxy)phenyl)-N-(2-hydroxy-2-methylpropyl)bicyclo[2.2.2] octane-1-carboxamide] | ≤ 0.01
11 | CNC(=O)C12CCC(c3ccc(OC/C(=C\F)CN)c(C)c3)(CC1)CC2 [Compound 2.01, (Z)-4-(4-((2-(aminomethyl)-3-fluoroallyl)oxy)-3-methylphenyl)-N-methylbicyclo[2.2.2]octane-1-carboxamide] | ≤ 0.01
12 | CO[C@@H]1CCCC(NC(=O)C23CCC(c4ccc(OC/C(=C/F)CN)cc4)(CC2)CC3)C1 (stereo in doubt) [Compound 2.115, 4-(4-(((E)-2-(aminomethyl)-3-fluoroallyl)oxy)phenyl)-N-((1S,3R)-3-methoxycyclohexyl)bicyclo [2.2.2]octane-1-carboxamide] | ≤ 0.01
13 | NC/C(=C\F)COc1ccc(C23CCC(C(=O)N4CC(F)(CO)C4)(CC2)CC3)cc1 [Compound 2.60, (E)-(4-(4-((2-(aminomethyl)-3-fluoroallyl)oxy)phenyl)bicyclo[2.2.2]octan-1-yl)(3-fluoro-3-(hydroxymethyl)azetidin-1-yl)methanone] | ≤ 0.01
14 | CO[C@H]1C[C@@H](NC(=O)C23CC(c4ccc(OC/C(=C/F)CN)cc4)(C2)C3)C1 [Compound 3.05, 3-(4-(((E)-2-(aminomethyl)-3-fluoroallyl)oxy)phenyl)-N-((1r,3r)-3-methoxycyclobutyl)bicyclo [1.1.1]pentane-1-carboxamide] | ≤ 0.01
15 | Cc1nnc(C23CCC(c4ccc(OC/C(=C/F)CN)cc4)(CC2)CC3)o1 [Compound 11, (2E)-3-fluoro-2-({4-[4-(5-methyl(1,3,4-oxadiazol-2-yl))bicyclo[2.2.2]octyl]phenoxy}methyl)prop-2-enylamine] | ≤ 0.01
16 | COc1cccc(CNC(=O)C23CCC(c4ccc(OC/C(=C/F)CN)cc4)(CC2)CC3)n1 [Compound 2.130, (E)-4-(4-((2-(aminomethyl)-3-fluoroallyl)oxy)phenyl)-N-((6-methoxypyridin-2-yl)methyl)bicyclo[2.2.2]octane-1-carboxamide] | ≤ 0.01
17 | CO[C@@H]1CCCN(C(=O)C23CCC(c4ccc(OC/C(=C/F)CN)cc4)(CC2)CC3)C1 [Compound 2.111, (R,E)-(4-(4-((2-(aminomethyl)-3-fluoroallyl)oxy)phenyl)bicyclo [2.2.2]octan-1-yl)(3-methoxypiperidin-1-yl)methanone] | ≤ 0.01
18 | CC(C)(NC(=O)C12CCC(c3ccc(OC/C(=C/F)CN)cc3)(CC1)CC2)C1CCOCC1 [Compound 2.108, (E)-4-(4-((2-(aminomethyl)-3-fluoroallyl)oxy)phenyl)-N-(2-(tetrahydro-2H-pyran-4-yl)propan-2-yl)bicyclo[2.2.2]octane-1-carboxamide] | ≤ 0.01
19 | NC/C(=C\F)COc1ccc(C23CCC(C(=O)NC4CCC(F)(F)CC4)(CC2)CC3)cc1 [Compound 2.46, (E)-4-(4-((2-(aminomethyl)-3-fluoroallyl)oxy)phenyl)-N-(4,4-difluorocyclohexyl)bicyclo [2.2.2]octane-1-carboxamide] | ≤ 0.01
20 | COCCC(=O)NC12CCC(c3ccc(OC/C(=C/F)CN)cc3)(CC1)CC2 [Compound 7.02, (E)-N-(4-(4-((2-(aminomethyl)-3-fluoroallyl)oxy)phenyl)bicyclo [2.2.2]octan-1-yl)-3-methoxypropanamide] | ≤ 0.01
21 | CO[C@H]1CCCN(C(=O)C23CCC(c4ccc(OC/C(=C/F)CN)cc4)(CC2)CC3)C1 [Compound 2.110, (S,E)-(4-(4-((2-(aminomethyl)-3-fluoroallyl)oxy)phenyl)bicyclo [2.2.2]octan-1-yl)(3-methoxypiperidin-1-yl)methanone] | ≤ 0.01
22 | COC(=O)C12CCC(c3ccc(OC/C(=C/F)CN)cc3)(CC1)CC2 [Compound 2.04, (E)-methyl 4-(4-((2-(aminomethyl)-3-fluoroallyl)oxy)phenyl)bicyclo [2.2.2]octane-1-carboxylate] | ≤ 0.01
23 | NC/C(=C\F)COc1ccc(C23CCC(C(=O)N4C5CCC4COC5)(CC2)CC3)cc1 [Compound 2.67, (E)-(4-(4-((2-(aminomethyl)-3-fluoroallyl)oxy)phenyl)bicyclo [2.2.2]octan-1-yl)(3-oxa-8-azabicyclo[3.2.1]octan-8-yl)methanone] | ≤ 0.01
24 | NC/C(=C\F)COc1ccc(C23CCC(C(=O)NCc4ccccc4)(CC2)CC3)cc1 [Compound 2.80, (E)-4-(4-((2-(aminomethyl)-3-fluoroallyl)oxy)phenyl)-N-benzylbicyclo[2.2.2]octane-1-carboxamide] | ≤ 0.01
